The values below come from US20230203059A1, “MACROCYCLIC JAK INHIBITOR AND USES THEREOF” (Biopolar Hongye (Guangdong) Pharmaceutical Co. Ltd., priority 2020, published 2023).

What all share (type): biochemical
In one assay the target is T1, JAK3 (Homo sapiens, UniProt P52333).
T1 sequence (P52333 1-1124): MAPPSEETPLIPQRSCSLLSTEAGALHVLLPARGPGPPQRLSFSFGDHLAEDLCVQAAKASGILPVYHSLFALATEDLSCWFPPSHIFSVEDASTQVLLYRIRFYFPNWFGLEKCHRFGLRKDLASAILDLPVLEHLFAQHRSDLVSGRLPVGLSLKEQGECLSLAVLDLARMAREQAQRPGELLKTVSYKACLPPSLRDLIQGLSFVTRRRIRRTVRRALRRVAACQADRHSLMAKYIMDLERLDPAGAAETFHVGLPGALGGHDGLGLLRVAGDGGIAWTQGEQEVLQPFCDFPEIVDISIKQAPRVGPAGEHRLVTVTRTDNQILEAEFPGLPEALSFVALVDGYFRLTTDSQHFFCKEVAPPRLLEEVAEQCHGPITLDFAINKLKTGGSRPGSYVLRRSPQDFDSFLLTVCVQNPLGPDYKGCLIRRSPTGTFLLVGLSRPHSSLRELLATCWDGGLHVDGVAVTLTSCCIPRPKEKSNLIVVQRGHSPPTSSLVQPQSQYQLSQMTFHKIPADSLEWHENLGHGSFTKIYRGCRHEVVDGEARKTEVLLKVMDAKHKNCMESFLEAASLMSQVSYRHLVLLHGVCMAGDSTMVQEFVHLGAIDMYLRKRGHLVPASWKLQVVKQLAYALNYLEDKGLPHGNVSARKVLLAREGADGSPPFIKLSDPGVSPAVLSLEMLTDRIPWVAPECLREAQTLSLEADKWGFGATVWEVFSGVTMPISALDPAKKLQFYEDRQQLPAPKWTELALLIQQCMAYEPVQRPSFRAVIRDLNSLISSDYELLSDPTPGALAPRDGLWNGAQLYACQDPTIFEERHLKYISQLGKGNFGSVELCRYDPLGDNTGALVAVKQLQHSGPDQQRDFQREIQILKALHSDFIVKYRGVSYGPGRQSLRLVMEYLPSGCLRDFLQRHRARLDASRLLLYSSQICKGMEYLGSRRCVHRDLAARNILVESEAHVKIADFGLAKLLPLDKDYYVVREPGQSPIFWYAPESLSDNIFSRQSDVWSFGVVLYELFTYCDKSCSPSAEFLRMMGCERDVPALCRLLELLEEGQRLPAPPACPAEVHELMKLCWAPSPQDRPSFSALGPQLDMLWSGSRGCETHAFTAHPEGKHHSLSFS
Nature of the assay: JAK kinase activity, homogeneous time-resolved fluorescence (JAK3 reaction system). Particulars: ATP 2 μM, JAK3 protein 0.04 ng/μL; read-out: JAK 3 activity.

Another assay addresses JAK1 (Homo sapiens, UniProt P23458). Nature of the assay: JAK kinase activity, homogeneous time-resolved fluorescence (JAK1 reaction system). The conditions noted are these: ATP 2 μM, JAK1 protein 0.2 ng/μL; read-out: JAK 1 activity. Put shortly: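 HTRF assay: JAK1 (0.2 ng/μL) with 2 μM ATP and substrate in 50 mM Hepes pH 7.0, 5 mM MgCl2, 1 mM DTT, 1 h. Phospho-substrate antibody/XL-615 detection with EDTA; 665/615 nm ratio, excitation 320 nm. IC50 from Hill-type fit against no-enzyme and no-compound controls.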

In a further assay the target is JAK2 (Homo sapiens, UniProt O60674). Nature of the assay: JAK kinase activity, homogeneous time-resolved fluorescence (JAK2 reaction system). The conditions noted are these: ATP 2 μM, JAK2 protein 0.01 ng/μL. The procedure, abridged: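 IC50 derived by Hill-equation fit of the 665/615 nm time-resolved fluorescence ratio after EDTA-containing detection mix with anti-phosphosubstrate antibody. Preceding 1 h reaction contained 2 μM ATP, 0.01 ng/μL JAK2, substrate, 50 mM Hepes pH 7.0, 5 mM MgCl2, 1 mM DTT.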
Sequence of JAK2 (O60674 whole entry): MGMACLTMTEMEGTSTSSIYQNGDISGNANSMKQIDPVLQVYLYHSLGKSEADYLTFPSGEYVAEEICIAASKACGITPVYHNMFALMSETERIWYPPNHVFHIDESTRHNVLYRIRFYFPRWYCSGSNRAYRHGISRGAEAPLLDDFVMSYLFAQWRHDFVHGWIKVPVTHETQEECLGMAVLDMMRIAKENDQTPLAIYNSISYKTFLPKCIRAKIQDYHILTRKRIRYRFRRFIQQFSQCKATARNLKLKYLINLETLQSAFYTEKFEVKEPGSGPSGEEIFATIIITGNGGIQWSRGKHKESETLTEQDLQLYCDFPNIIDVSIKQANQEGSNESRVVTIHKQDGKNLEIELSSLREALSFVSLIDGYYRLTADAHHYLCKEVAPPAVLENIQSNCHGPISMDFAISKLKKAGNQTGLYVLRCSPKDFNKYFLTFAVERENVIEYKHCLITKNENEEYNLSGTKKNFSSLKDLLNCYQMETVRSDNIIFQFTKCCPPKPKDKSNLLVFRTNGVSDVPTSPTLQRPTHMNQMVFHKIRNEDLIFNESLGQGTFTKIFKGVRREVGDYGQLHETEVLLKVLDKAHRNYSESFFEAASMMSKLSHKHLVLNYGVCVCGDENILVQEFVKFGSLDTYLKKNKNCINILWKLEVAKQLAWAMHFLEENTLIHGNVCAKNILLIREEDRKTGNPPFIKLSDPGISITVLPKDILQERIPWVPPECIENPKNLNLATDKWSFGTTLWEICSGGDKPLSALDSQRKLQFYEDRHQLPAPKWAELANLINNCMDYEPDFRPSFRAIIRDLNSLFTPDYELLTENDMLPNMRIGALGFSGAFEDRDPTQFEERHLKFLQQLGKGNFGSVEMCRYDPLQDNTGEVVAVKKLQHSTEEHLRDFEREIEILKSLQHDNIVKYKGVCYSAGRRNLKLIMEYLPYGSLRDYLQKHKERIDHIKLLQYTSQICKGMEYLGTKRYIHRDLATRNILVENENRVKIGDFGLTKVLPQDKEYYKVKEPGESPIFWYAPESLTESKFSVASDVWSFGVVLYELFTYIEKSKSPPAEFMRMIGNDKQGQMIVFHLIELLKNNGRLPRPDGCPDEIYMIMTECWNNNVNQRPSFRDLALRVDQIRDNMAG

Another assay deals with TYK2 (Homo sapiens, UniProt P29597). Nature of the assay: JAK kinase activity, homogeneous time-resolved fluorescence (TYK2 reaction system). The conditions noted are these: ATP 2 μM, TYK2 protein 0.2 ng/μL; read-out: TYK 2 activity. Put shortly:
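Activity read as the 665 nm/615 nm ratio after adding EDTA-containing detection mix with anti-phospho-substrate antibody and XL-615. Beforehand, 0.2 ng/μL TYK2, 2 μM ATP, substrate and compound reacted 1 h in pH 7.0 Hepes buffer with MgCl2 and DTT. IC50 fitted with Hill-slope equation.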

Sequence of JAK1 (P23458 whole entry): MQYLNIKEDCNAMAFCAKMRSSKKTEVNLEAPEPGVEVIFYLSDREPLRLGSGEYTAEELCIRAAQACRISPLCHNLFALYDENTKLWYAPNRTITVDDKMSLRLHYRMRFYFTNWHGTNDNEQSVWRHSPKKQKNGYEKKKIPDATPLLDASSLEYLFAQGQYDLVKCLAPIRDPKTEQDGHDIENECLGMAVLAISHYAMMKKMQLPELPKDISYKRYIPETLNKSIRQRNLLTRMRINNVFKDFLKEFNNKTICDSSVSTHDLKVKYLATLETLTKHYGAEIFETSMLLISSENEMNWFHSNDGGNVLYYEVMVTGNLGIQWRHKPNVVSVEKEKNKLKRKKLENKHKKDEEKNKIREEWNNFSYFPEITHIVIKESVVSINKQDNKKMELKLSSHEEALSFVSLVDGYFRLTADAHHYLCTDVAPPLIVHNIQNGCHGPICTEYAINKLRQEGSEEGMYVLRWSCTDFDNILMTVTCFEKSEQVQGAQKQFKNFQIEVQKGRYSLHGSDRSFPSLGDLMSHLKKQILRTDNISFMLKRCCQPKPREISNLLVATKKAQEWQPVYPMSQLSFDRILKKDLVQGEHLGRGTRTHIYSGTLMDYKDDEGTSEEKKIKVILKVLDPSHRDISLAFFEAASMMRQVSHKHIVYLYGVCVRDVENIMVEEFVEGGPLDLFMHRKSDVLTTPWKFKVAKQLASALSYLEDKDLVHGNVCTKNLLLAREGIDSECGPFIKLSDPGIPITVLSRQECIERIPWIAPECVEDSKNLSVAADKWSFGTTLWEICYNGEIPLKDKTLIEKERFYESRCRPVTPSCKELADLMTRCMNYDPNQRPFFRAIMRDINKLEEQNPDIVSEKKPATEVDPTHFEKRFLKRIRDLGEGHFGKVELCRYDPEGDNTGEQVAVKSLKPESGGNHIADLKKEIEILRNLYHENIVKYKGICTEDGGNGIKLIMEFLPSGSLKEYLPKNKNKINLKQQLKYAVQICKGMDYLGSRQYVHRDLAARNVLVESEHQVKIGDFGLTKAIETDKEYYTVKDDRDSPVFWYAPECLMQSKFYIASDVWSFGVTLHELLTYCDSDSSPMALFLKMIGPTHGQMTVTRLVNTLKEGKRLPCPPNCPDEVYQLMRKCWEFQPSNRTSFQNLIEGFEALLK
Sequence of TYK2 (P29597 whole entry): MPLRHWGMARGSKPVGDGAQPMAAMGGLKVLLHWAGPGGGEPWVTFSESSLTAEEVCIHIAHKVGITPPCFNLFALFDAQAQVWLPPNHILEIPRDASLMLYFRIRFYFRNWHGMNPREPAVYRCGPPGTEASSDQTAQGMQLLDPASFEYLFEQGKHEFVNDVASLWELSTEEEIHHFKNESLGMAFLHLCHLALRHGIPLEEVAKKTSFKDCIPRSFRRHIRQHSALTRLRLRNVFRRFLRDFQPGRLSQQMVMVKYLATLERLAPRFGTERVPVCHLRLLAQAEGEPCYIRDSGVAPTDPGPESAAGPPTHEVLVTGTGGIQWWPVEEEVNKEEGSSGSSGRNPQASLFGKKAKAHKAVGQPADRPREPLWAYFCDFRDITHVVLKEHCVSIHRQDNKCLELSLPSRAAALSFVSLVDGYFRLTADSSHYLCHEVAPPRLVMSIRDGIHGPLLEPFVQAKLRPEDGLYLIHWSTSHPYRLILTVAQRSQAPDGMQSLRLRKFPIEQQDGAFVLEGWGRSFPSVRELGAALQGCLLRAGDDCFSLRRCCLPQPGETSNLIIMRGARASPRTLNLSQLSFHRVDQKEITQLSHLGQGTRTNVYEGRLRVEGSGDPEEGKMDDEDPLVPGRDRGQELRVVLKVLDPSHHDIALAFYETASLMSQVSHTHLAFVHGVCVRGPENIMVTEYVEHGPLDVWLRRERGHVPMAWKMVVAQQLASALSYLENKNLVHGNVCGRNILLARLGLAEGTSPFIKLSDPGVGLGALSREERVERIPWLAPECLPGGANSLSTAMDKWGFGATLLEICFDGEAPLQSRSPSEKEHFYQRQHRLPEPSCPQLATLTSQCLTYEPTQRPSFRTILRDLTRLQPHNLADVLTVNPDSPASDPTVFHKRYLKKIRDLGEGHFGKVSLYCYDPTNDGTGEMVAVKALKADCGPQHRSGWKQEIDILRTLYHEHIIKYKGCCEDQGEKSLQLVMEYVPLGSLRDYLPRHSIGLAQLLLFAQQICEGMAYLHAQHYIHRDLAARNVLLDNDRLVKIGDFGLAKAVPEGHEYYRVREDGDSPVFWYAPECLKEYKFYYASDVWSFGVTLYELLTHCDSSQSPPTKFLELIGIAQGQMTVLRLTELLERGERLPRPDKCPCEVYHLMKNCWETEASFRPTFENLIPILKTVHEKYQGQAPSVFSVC

Consider `Nc1cc2ccc1-c1ccnc(n1)Nc1ccc(Oc3ccccc3)c(c1)COCCCCNC2=O` [Example 96, 1^2-amino-4^4-phenoxy-6-oxa-3,11-diaza-2(4,2)-pyrimidin-1(1,4),4(1,3)-dibenzenacyclododecaphan-12-one], for which the IC50 on JAK3 is 11 to 100 nM; at JAK1 it was 1000 to 10000 nM; against JAK2, 1000 to 10000 nM; on TYK2 it was more than 10000 nM.

On to `Nc1cc2ccc1-c1ccnc(n1)Nc1ccc(OCC3CCCCC3)c(c1)COCCCCNC2=O` [Example 97, 1^2-amino-4^4-(cyclohexylmethoxy)-6-oxa-3,11-diaza-2(4,2)-pyrimidi-na-1(1,4),4(1,3)-dibenzenacyclodo-decaphan-12-one], for which the IC50 on JAK3 fell in the range of 11 to 100 nM; at JAK1 it was 1000 to 10000 nM; at JAK2 it was 1000 to 10000 nM; on TYK2, 1000 to 10000 nM.

With `Nc1cc2ccc1-c1ccnc(n1)Nc1ccc(OC3CC(F)(F)C3)c(c1)COCCCCNC2=O` [Example 98, 1^2-amino-4^4-(3,3-difluorocyclobuto-xy)-6-oxa-3,11-diaza-2(4,2)-pyri-midina-1(1,4),4(1,3)-dibenzenacyclo-dodecaphan-12-one], the IC50 lay in the range of 11 to 100 nM at JAK3, 101 to 1000 nM on JAK1, 101 to 1000 nM against JAK2 and 1000 to 10000 nM on TYK2.

Turning to `O=C1NCCCCOCc2cc(ccc2OCC2CCC2)Nc2nccc(n2)-c2ccc1cc2[N+](=O)[O-]` [Example 99, 4^4-(cyclobutylmethoxy)-1^2-nitro-6-oxa-3,11-diaza-2(4,2)-pyrimidina-1(1,4),4(1,3)-dibenzenacyclodode-caphan-12-one], the IC50 at JAK3 was 101 to 1000 nM; on JAK1 it was more than 10000 nM; against JAK2, 1000 to 10000 nM; at TYK2, more than 10000 nM.

Consider `Nc1cc2ccc1-c1ccnc(n1)Nc1ccc(OCC3CCC3)c(c1)COCCCCNC2=O` [Example 100, 1^2-amino-4^4-(cyclobutylmethoxy)-6-oxa-3,11-diaza-2(4,2)-pyrimidina-1(1,4),4(1,3)-dibenzenacyclododeca-phan-12-one], for which the IC50 on JAK3 was less than 10 nM; at JAK1 it was 101 to 1000 nM; against JAK2 it was 101 to 1000 nM; at TYK2, 1000 to 10000 nM.

`O=C1NCCCCOCc2cc(ccc2Oc2cccc(F)c2)Nc2nccc(n2)-c2ccc1cc2[N+](=O)[O-]` [Example 101, 4^4-(3-fluorophenoxy)-1^2-nitro-6-oxa-3,11-diaza-2(4,2)-pyrimidina-(1,4),4(1,3)-dibenzenacyclododeca-phan-12-one]: the IC50 on JAK3 is 1000 to 10000 nM; at JAK1, more than 10000 nM; on JAK2 it was 1000 to 10000 nM; at TYK2, more than 10000 nM.

For `Nc1cc2ccc1-c1ccnc(n1)Nc1ccc(Oc3cccc(F)c3)c(c1)COCCCCNC2=O` [Example 102, 1^2-amino-4^4-(3-fluorophenoxy)-6-oxa-3,11-diaza-2(4,2)-pyrimidina-1(1,4),4(1,3)-dibenzenacyclodode-caphan-12-one], the IC50 at JAK3 is 11 to 100 nM; at JAK1 it was 1000 to 10000 nM; at JAK2 it was 1000 to 10000 nM; on TYK2, more than 10000 nM.

`CC1CCNC(=O)c2ccc(c([N+](=O)[O-])c2)-c2ccnc(n2)Nc2ccc(OC3CC3)c(c2)COC1` (centres unmarked) [Example 103]: the IC50 on JAK3 was 101 to 1000 nM; on JAK1 it was more than 10000 nM; against JAK2, 1000 to 10000 nM; at TYK2, more than 10000 nM.

Turning to `O=C1NCCCCOCc2cc(ccc2OCC2CCCC2)Nc2nccc(n2)-c2ccc1cc2[N+](=O)[O-]` [Example 104, 4^4-(cyclopentylmethoxy)-1^2-nitro-6-oxa-3,11-diaza-2(4,2)-pyrimidina-1(1,4),4(1,3)-dibenzenacyclodo-decaphan-12-one], the IC50 is 101 to 1000 nM on JAK3, more than 10000 nM at JAK1, 1000 to 10000 nM against JAK2 and more than 10000 nM at TYK2.

For the compound `Nc1cc2ccc1-c1ccnc(n1)Nc1ccc(OCC3CCCC3)c(c1)COCCCCNC2=O` [Example 105, 1^2-amino-4^4-(cyclopentylmethoxy)-6-oxa-3,11-diaza-2(4,2)-pyrimidi-na-1(1,4),4(1,3)-dibenzenacyclodo-decaphan-12-one], the IC50 on JAK3 is less than 10 nM; at JAK1, 1000 to 10000 nM; at JAK2, 101 to 1000 nM; at TYK2, more than 10000 nM.

Turning to `O=C1NCCCCOCc2cc(ccc2Oc2ccc(F)cc2)Nc2nccc(n2)-c2ccc1cc2[N+](=O)[O-]` [Example 106, 4^4-(4-fluorophenoxy)-1^2-nitro-6-o-xa-3,11-diaza-2(4,2)-pyrimidina-1(1,4),4(1,3)-dibenzenacyclo-dodecaphan-12-one], the IC50 on JAK3 is 101 to 1000 nM; at JAK1, more than 10000 nM; on JAK2, 1000 to 10000 nM; on TYK2, more than 10000 nM.

As to `Nc1cc2ccc1-c1ccnc(n1)Nc1ccc(Oc3ccc(F)cc3)c(c1)COCCCCNC2=O` [Example 107, 1^2-amino-4^4-(4-fluorophenoxy)-6-oxa-3,11-diaza-2(4,2)-pyrimidina-1(1,4),4(1,3)-dibenzenacyclo-dodecaphan-12-one], the IC50 on JAK3 was 11 to 100 nM; on JAK1, 1000 to 10000 nM; at JAK2 it was 101 to 1000 nM; at TYK2 it was more than 10000 nM.

As to `O=C1NCCCCOCc2cc(ccc2OCC(F)(F)F)Nc2nccc(n2)-c2ccc1cc2[N+](=O)[O-]` [Example 108, 1^2-nitro-4^4-(2,2,2-trifluoroethoxy)-6-oxa-3,11-diaza-2(4,2)-pyrimidina-1(1,4),4(1,3)-dibenzenacyclo-dodecaphan-12-one], the IC50 was 101 to 1000 nM on JAK3, 1000 to 10000 nM on JAK1, 1000 to 10000 nM on JAK2 and more than 10000 nM on TYK2.

In the case of `Nc1cc2ccc1-c1ccnc(n1)Nc1ccc(OCC(F)(F)F)c(c1)COCCCCNC2=O` [Example 109, 1^2-amino-4^4-(2,2,2-trifluoroethoxy)-6-oxa-3,11-diaza-2(4,2)-pyrimidi-na-1(1,4),4(1,3)-dibenzenacyclo-dodecaphan-12-one], the IC50 lay in the range of 11 to 100 nM at JAK3, 1000 to 10000 nM at JAK1, 101 to 1000 nM against JAK2 and 1000 to 10000 nM at TYK2.

For the compound `Nc1cc2ccc1-c1ccnc(n1)Nc1ccc(Oc3cccnc3)c(c1)COCCCCNC2=O` [Example 110, 1^2-amino-4^4-(pyridin-3-oxy)-6-oxa-3,11-diaza-2(4,2)-pyrimidina-1(1,4),4(1,3)-dibenzenacyclodo-decaphan-12-one], the IC50 at JAK3 was less than 10 nM; on JAK1, 1000 to 10000 nM; against JAK2, 101 to 1000 nM; at TYK2, 1000 to 10000 nM.

Consider `O=C1NCCCCOCc2cc(ccc2OCC2CC2)Nc2nccc(n2)-c2ccc1cc2[N+](=O)[O-]` [Example 111, 4^4-(cyclopropylmethoxy)-1^2-nitro-6-oxa-3,11-diaza-2(4,2)-pyrimidina-1(1,4),4(1,3)-dibenzenacyclo-dodecaphan-12-one], for which the IC50 is 101 to 1000 nM on JAK3, 1000 to 10000 nM at JAK1, 1000 to 10000 nM at JAK2 and more than 10000 nM at TYK2.

`Nc1cc2ccc1-c1ccnc(n1)Nc1ccc(OCC3CC3)c(c1)COCCCCNC2=O` [Example 112, 1^2-amino-4^4-(cyclopropylmethoxy)-6-oxa-3,11-diaza-2(4,2)-pyrimidi-na-1(1,4),4(1,3)-dibenzenacyclo-dodecaphan-12-one]: the IC50 on JAK3 is less than 10 nM; on JAK1 it was 1000 to 10000 nM; on JAK2, 101 to 1000 nM; at TYK2 it was more than 10000 nM.
